Experiment [1] addresses ACVR2A (Homo sapiens, UniProt P27037). The experiment can be described thus: LanthaScreen Eu kinase binding assay, BMP type II receptor ACVR2A. The following applies: 10-point titration from 10 μM, 3-fold serial dilution, Life Technologies. An excerpt:
(§1) For the detailed description of LanthaScreen™ Eu kinase binding assay condition, please see: https://www.thermofisher.com/us/en/home/industrial/pharma-biopharma/drug-discovery-development/target-and-lead-identification-and-validation/kinasebiology/kinase-activity-assays/lanthascreentm-eu-kinas e-binding-assay/lanthascreen-eu-kinase-binding-assay-validation-table.html.

Experiment [2] deals with ACVR2B (Homo sapiens, UniProt Q13705). Nature of the experiment: LanthaScreen Eu kinase binding assay, BMP type II receptor ACVR2B. The settings on record: 10-point titration from 10 μM, 3-fold serial dilution, Life Technologies. Here is the method:
(§2) Kinase Profiling BMP Type II Receptor Experimental Procedure (Life Technologies, 5225 Vernona Road, Madison, Wis. 53744)
(§3) The measurement of each compound's half maximal inhibitory concentration (IC50) for BMP type II receptors (ACVR2A, ACVR2B, BMPR2 and TGFbR2) was carried out at Life Technologies by using its 10-point titration (starting concentration: 10 μM with 3-fold serial dilution) LanthaScreen™ biochemical kinase assay protocol. For the detailed description of LanthaScreen™ Eu kinase binding assay condition, please see: https://www.thermofisher.com/us/en/home/industrial/pharma-biopharma/drug-discovery-development/target-and-lead-identification-and-validation/kinasebiology/kinase-activity-assays/lanthascreentm-eu-kinas e-binding-assay/lanthascreen-eu-kinase-binding-assay-validation-table.html.

Experiment [3] has as its target T1, BMPR2 (Homo sapiens, UniProt Q13873).
T1 sequence (Q13873 27-1038): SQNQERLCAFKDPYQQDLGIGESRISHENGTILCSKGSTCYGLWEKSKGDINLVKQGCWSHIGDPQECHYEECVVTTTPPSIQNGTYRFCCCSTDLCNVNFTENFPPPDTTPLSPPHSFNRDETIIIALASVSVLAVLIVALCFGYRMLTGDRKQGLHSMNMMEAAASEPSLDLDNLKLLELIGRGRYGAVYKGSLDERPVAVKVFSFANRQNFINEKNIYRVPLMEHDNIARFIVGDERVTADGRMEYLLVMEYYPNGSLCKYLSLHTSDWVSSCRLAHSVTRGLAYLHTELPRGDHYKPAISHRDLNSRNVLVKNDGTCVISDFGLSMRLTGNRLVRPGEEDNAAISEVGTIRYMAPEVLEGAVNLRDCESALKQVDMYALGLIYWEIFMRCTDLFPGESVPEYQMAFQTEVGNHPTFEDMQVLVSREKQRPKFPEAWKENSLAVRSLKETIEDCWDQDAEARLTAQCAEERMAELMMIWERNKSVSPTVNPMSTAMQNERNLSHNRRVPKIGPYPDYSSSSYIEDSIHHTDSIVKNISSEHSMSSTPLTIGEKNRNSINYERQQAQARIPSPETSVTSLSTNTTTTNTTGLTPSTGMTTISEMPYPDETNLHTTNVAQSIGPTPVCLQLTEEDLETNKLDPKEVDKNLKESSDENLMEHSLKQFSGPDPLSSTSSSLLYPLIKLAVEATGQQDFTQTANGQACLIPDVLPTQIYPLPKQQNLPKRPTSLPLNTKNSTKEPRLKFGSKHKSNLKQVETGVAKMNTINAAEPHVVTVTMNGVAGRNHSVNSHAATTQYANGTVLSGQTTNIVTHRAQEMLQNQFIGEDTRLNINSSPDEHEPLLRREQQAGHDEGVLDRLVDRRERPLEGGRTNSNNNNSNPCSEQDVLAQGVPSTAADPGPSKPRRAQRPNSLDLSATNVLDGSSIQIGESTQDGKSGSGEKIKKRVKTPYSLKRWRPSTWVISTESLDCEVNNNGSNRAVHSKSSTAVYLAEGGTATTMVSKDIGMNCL
The experiment can be described thus: LanthaScreen Eu kinase binding assay, BMP type II receptor BMPR2. The following applies: 10-point titration from 10 μM, 3-fold serial dilution, Life Technologies. Here is the method: as §2, §3

The target in experiment [4] is TGFβR2 (Homo sapiens, UniProt P37173). Nature of the experiment: LanthaScreen Eu kinase binding assay, BMP type II receptor TGFbR2. The following applies: 10-point titration from 10 μM, 3-fold serial dilution, Life Technologies.
TGFβR2, sequence (P37173 23-567): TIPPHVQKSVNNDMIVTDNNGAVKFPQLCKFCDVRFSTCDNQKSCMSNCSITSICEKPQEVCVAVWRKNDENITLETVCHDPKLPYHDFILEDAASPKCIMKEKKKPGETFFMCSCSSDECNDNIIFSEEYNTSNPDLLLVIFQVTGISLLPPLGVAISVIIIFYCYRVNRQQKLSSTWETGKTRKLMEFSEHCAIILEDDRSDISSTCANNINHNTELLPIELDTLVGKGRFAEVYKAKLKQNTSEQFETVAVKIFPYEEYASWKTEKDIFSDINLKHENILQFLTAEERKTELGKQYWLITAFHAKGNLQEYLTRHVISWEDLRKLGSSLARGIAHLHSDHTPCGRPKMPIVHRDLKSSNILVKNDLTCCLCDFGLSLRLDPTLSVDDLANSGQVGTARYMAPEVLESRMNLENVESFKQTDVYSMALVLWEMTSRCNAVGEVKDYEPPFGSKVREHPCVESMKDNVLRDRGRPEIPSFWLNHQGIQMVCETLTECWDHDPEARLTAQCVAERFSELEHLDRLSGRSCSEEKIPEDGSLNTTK
From the text: as §1
On the technique in general: In TR-FRET formats the signal depends on donor and acceptor labels being close together.

The test system of experiment [5] is BMP6. Nature of the experiment: Cell assay HTRF BMP6 (Table 15). In kind it is cell-based.
Experiment [6] relates to TGFb. Nature of the experiment: Cell assay HTRF TGFb (Table 15). The class given is cell-based. The following applies: read-out: HRTF TGFb (IC50).
For experiment [7], the target named is T2, ALK2 (Homo sapiens, UniProt Q04771).
T2 sequence (Q04771 147-509 limits assumed): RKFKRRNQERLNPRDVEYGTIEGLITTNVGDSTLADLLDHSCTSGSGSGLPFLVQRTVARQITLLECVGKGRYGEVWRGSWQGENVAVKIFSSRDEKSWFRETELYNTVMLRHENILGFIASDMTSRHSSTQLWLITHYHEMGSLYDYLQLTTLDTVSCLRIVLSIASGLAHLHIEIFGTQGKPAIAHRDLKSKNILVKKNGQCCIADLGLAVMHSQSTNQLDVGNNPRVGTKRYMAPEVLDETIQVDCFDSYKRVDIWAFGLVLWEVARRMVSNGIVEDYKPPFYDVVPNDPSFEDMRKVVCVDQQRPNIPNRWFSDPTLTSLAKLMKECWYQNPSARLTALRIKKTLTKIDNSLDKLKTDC
Nature of the experiment: ALK2 (nM), Table 15. In kind it is biochemical.

Experiment [8] concerns the target T3, ALK2 (Mus musculus, UniProt P37172).
T3 construct: endogenous in cells; host or cells: C2C12-BRE (BRE-Luc reporter line, G418 selection)
T3 sequence (P37172 21-509): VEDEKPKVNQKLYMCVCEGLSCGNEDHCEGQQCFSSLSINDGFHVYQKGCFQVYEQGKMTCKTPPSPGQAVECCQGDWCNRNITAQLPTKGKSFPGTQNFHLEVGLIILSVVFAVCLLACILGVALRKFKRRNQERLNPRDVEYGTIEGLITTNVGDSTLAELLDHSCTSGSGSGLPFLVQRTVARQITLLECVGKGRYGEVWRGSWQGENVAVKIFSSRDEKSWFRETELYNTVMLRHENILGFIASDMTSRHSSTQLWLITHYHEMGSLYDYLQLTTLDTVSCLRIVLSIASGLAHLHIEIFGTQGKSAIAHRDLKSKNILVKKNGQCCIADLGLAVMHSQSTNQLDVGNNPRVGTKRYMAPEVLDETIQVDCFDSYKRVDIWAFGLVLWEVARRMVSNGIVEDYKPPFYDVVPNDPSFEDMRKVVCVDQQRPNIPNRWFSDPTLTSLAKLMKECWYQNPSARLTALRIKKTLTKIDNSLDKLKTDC
Nature of the experiment: Luciferase reporter gene assay for ALK2 activity (C2C12 BRE-Luc SMAD1/5/8 reporter, BMP6 agonist). The settings on record: BMP6 50 ng/mL. In kind it is cell-based. In outline:
(§4)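 TGFβ activity was measured in HEK293T SBE-Luc cells stimulated with 5 ng/mL TGFβ, at compound 10000-30 nM final. ALK2 activity was measured in C2C12 BRE-Luc cells stimulated with 50 ng/mL BMP6, at compound 1000-0.3 nM final. Compound was preincubated 45 min in 2% FBS medium; after ≥18 h agonist exposure, luminescence was read and inhibition expressed as % signal loss versus background-subtracted agonist controls.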

The subject of experiment [9] is TGFβ. The experiment can be described thus: Luciferase reporter gene assay for TGFβ activity (HEK293T SBE-Luc SMAD2/3 reporter, TGFβ agonist). The class given is cell-based. The settings on record: Homo sapiens, HEK-293T, TGFβ 5 ng/mL. Put shortly:
as §4
(Reporter assays use an easily measured gene product as a stand-in for the process of interest.)

Molecules are shown by their SMILES.

As a reminder, the IC50 is the midpoint of a concentration-inhibition curve.

ACVR2B, sequence (Q13705 19-512): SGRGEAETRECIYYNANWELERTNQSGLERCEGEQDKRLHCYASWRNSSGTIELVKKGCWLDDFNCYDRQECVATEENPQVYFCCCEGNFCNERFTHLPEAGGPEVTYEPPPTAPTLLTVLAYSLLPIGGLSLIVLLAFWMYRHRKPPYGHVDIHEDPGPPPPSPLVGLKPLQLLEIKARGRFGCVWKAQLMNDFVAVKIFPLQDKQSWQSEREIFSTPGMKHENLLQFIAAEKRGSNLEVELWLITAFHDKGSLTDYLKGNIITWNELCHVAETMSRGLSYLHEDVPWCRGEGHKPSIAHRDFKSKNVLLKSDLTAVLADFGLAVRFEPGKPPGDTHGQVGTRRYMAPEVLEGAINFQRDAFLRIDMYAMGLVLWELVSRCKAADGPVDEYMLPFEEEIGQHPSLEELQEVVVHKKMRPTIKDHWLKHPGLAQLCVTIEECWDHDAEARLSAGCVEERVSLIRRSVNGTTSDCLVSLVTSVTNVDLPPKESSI
ACVR2A, sequence (P27037 20-513): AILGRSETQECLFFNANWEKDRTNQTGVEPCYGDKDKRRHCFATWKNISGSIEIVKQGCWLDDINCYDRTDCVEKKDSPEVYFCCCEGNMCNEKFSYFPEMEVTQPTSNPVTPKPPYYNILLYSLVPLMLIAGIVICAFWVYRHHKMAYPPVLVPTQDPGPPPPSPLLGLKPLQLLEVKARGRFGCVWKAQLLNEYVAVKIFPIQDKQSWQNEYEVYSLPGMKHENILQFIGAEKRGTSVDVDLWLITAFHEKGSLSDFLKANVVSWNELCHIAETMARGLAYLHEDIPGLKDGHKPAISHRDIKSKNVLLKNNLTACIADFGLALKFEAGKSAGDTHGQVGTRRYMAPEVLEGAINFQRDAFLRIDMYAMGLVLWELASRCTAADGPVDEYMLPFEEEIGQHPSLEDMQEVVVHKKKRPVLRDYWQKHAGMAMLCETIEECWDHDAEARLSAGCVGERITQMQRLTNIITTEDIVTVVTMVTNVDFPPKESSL

`c1ccc2c(-c3cnn4cc(N5CCN(C6CCNCC6)CC5)cnc34)ccnc2c1` [Compound 79]: the IC50 was 851 nM in [1]; 1280 nM in experiment [2]; more than 10000 nM in experiment [3]; 71.3 nM in [4]; 97.4 nM in experiment [5]; 4610 nM in experiment [6]. This compound returned an IC50 in [7] of 110 nM.
In the case of `c1ccc2c(-c3cnn4cc(N5CCNCC5)cnc34)ccnc2c1` [Compound 80], the IC50 in [8] was 25 nM; in experiment [9], 33 nM; in [1] it was 3710 nM; in experiment [2] it was 3610 nM; in experiment [3], not below 10000 nM; in experiment [4], 194 nM. The IC50 was 250 nM in [5], 5790 nM in [6] and 93 nM in [7].
As to `COc1cc2c(-c3cnn4cc(N5CCC(N6CCN(C)C(=O)C6)CC5)cnc34)ccnc2cc1F` [Compound 323], the figures for the IC50 in experiment [8] and in experiment [9] were 194 nM and more than 1000 nM, respectively.
The matching figures for `COc1cc2c(-c3cnn4cc(N5CCC(N6CCN(C)CC6)CC5)cnc34)cc[n+]([O-])c2cc1F` [Compound 324]: 178 nM and 723 nM.
Take `COc1cc2c(-c3cnn4cc(N5CCNCC5=O)cnc34)ccnc2cc1F` [Compound 326]: the 50% inhibitory concentration (IC50) is more than 1000 nM in experiment [8] and more than 3000 nM in experiment [9].
The matching figures for `COc1cc2c(-c3cnn4cc(N5CCC(N6CCN(C)CC6=O)CC5)cnc34)ccnc2cc1F` [Compound 329]: more than 1000 nM and more than 3000 nM.
The matching figures for `COc1cc2c(-c3cnc4cc(N5CC(N6CCN(C)CC6)C5)cnn34)ccnc2cc1F` [Compound 335]: 47 nM and more than 2000 nM.
The matching figures for `Cc1cc(-c2cnn3cc(N4CC5(CC(N(C)C)C5)C4)cnc23)c2ccccc2n1` [Compound 337]: 9 nM and less than 1 nM.
As for `CN1CCN(C2CN(c3cnc4c(N5CCN(C(=O)C6CC6)CC5)cnn4c3)C2)CC1` [Compound 339], the 50% inhibitory concentration (IC50) in experiment [8] is more than 1000 nM; in experiment [9], more than 3000 nM.
On the same counts, the results for `Cc1ccc2nccc(-c3cnn4cc(N5CCC(N6CCOCC6)CC5)cnc34)c2c1` [Compound 341] are 15 nM and 771 nM.
On the same counts, the results for `[2H]C([2H])([2H])Oc1cc2c(-c3cnn4cc(N5CCC(N6CCN(C)CC6)CC5)cnc34)ccnc2cc1F` [Compound 346] are 18 nM and 686 nM.
On the same counts, the results for `Cc1cc(-c2cnn3cc(N4CC(OCCN(C)C)C4)cnc23)c2ccccc2n1` [Compound 350] are 477 nM and 975 nM.
For `COc1cc2c(-c3cnc4cc(N5CCC(N6CCN(C)CC6)CC5)ccn34)ccnc2cc1F` [Compound 351], the values for the 50% inhibitory concentration (IC50) in experiment [8] and in [9] were 372 nM and more than 3000 nM, respectively.
On the same counts, the results for `COc1cc2c(-c3nnc4cc(N5CCC(N6CCN(C)CC6)CC5)ccn34)ccnc2cc1F` [Compound 354] are more than 1000 nM and more than 3000 nM.
The matching figures for `COc1cc2c(-c3cnc4cc(N5CCC(N6CCN(C)CC6)CC5)cnn34)ccnc2cc1F` [Compound 355]: 146 nM and 791 nM.
With `Cc1ccc2nccc(-c3cnn4cc(N5CC(c6ccncc6)C5)cnc34)c2c1` [Example 292], the IC50 in [8] turned out to be 159 nM; in experiment [9], 595 nM.
In the case of `Cc1cc(-c2cnn3cc(N4CC5(CC(N)C5)C4)cnc23)c2ccccc2n1` [Example 295], the results for the concentration for half-maximal inhibition (IC50) in [8] and in [9] were 13 nM and 389 nM, respectively.
On the same counts, the results for `COc1cc2c(-c3cnn4cc(N5C[C@@H]6C(N(C)C)[C@@H]6C5)cnc34)ccnc2cc1F` (stereo partly shown) [Example 297] are 21 nM and more than 1000 nM.
On the same counts, the results for `Cc1cc(-c2cnn3cc(N4CC5(CN(C)C5)C4)cnc23)c2ccccc2n1` [Example 298] are 3 nM and less than 1 nM.
Turning to `Cc1cc2c(-c3cnn4cc(N5CC(N6CCOCC6)C5)cnc34)ccnc2cc1F` [Example 301], the half-maximal inhibitory concentration (IC50) in experiment [8] was 18 nM; in experiment [9] it was less than 20 nM.

Values taken from patent US20230000869A1, “NOVEL ALK2 INHIBITORS AND METHODS FOR INHIBITING BMP SIGNALING” (The Brigham and Women's Hospital, Inc., priority 2017, published 2023).
